Experimental data reported in patent US9226911B2, “Method of reducing weight using composition containing fucoxanthin extract” (BEIJING GINGKO GROUP BIOLOGICAL TECHNOLOGY CO., LTD., priority 2009, dated 2016).
Marks after values point to notes of the source that are not given here.

Columns and labels:
[1] = system: model rats with alimentary obesity; experiment: Example 4: body weight of rats with high-fat-feed alimentary obesity, 30 d intragastric administration; format: in vivo, SD rats; details: x ± s; for Body weight (g) (after experiment): after 30 d intragastric; for Body weight (g) (before experiment): baseline after 1 month high-fat feed, 10 rats per group
Procedure: (§1) Test substances: Formulations are prepared according to the ratios shown in Table 4 Formulations for feeding animals: high-fat feed is composed of 80% basic feed, 10% lard and 10% yolk powder.
(§2) Grouping and treatment of the test animals: 80 grown-up male healthy SD clean grade rats (body weight 180-210 g) are adaptively fed with basic feed for a week, 10 are used as basic feed control, the rest are fed with high-fat feed. A month later, the group of rats fed with high-fat feed is randomly grouped into 7 groups according to their weights, 10 in each group: model control, fucoxanthin (A), tocotrienols(B), fucoidan(C), composition A+B+C, composition A+B and composition A+C. The group of basic feed keeps on feeding with basic feed, the rest groups are fed with high-fat feeds. The groups of basic feed and model control are intragastrically administrated with distilled water, the rest groups are intragastrically administrated with tested medicines, all administrated for 30 d. The groups of animals are raised in different cages in rooms with the temperature conditioned at (22±2) ° C. and under natural illumination. The rats take food and water freely. Each week, their body weights are measured and the amounts of food they take are observed and recorded. They are weighted after feeding for 30 d.
(§3) Statistical analysis: the variance from the data collected in this experiment is analyzed with SAS package, Dunnett's t test is used to compare statistically the results from different groups, the results of P<0.05 is decided as statistically significant.

[2] = system: model rats with alimentary obesity; experiment: Example 5: abdomen fat in model rats with alimentary obesity; format: in vivo, SD rats; details: x ± s, 30 d, A 9.06 μg, B 36.25 μg, C 18.12 mg (A + B: A 36.25 μg [sic])
Procedure: as §1, §2, §3
The procedure was the same as in Example 4. After feeding for 30 d and weighing, executing all the rats, the abdomen fat was peeled off and weighed accurately. Statistical analysis was carried out as in Example 4

[3] = system: model rats with alimentary obesity; experiment: Example 6: fat pads around the testicles in model rats with alimentary obesity; format: in vivo, SD rats; details: x ± s, 30 days, A 362.5 μg, B 18.12 μg, C 9.06 mg
Procedure: as §1, §2, §3
The procedure was the same as in Example 4. After feeding for 30 days and weighing, executing all the rats, the fat pads around the testicles were peeled off and weighed accurately. Statistical analysis was carried out as in Example 4.

[4] = system: model rats with alimentary obesity; experiment: Example 7: fat pads around the kidneys in model rats with alimentary obesity; format: in vivo, SD rats; details: x ± s; 30 d; A 181.23 μg, B 398.7 μg, C 1.81 mg
Procedure: as §1, §2, §3
The procedure was the same as in Example 4. After feeding for 30 d and weighing, executing all the rats, the fat pads around the kidneys were taken out and weighed accurately. Statistical analysis was carried out as in Example 4.

test subjects = experiment: Example 8: clinic intake trial, body weight and abdomen fat areas by CT; format: in vivo, human
Source text: To examine the weight reducing effect of fucoxanthin composition by means of random control method, 20 eligible test subjects of the age of 20 to 50 were divided into 5 groups, A+B+C, A+C, A+B, A, B+C, with random figure table method. The number of the subjects in each group was n=4. The daily doses of the medicines taken by the subjects were according to Table 12. Apart from being administrated with each of the different tested medicines at the breakfast time according to the set way of taking the medicine, other normal life style and dietetic habit of the subjects were not changed. No low-calorie food recipe was required, no restriction to the food and drink was executed and no extra physical training was carried out. To examining the effect of sampling of the medicine, the subjects were respectively examined before sampling of the medicine and 1 month, 2 and 3 months after the sampling. That is, the bodyweight, waist- and hiplines, blood sugar and blood fat were measured, abdomen CT scanning was carried out and so on. The subjects were periodically followed-up to find out the experiences and to supervise and guarantee compliance of the customers in taking the medicine. For the test, those suffered from serious metabolic diseases that need medicinal control and those taken other weight reducing products had been excluded.
Abdomen fat areas were measured with CT • Instrument: CT Model Pronto; Hitachi, Japan. • 120 kV, 175 mA • Layer thickness of the scanning: 10 mm • Scanning in the umbilical cross-section • Attenuation of the adipose tissue: −250˜−50 HU (CT Unit) • Calculation of the fat areas: total abdomen fat, visceral- and subcutaneous fat (mm^2)
Using CT Scanning, total fat—as well as visceral fat areas were marked out across the umbilical cross-section, the areas were measured respectively, the area of subcutaneous fat was obtained as the difference of both areas.

[5] = per rat A 36.25 μg, B 36.25 μg, C 0.4 mg
[6] = over 30 d intragastric, per rat A 36.25 μg, B 36.25 μg, C 0.4 mg
[7] = n = 4, after vs before, daily dose A 2 mg, B 2 mg, C 22 mg
[8] = x ± s, n = 4, CT, oral daily dose A 2 mg, B 2 mg, C 22 mg

fucoidan was tested, and the “Body weight (g) (after experiment)” value [1, 5] was 546.59 ± 18.64 g, the “Body weight (g) (before experiment)” value [1] was 486.69 ± 21.12 g and the “Weight increased” value [1, 6] was 59.90 ± 18.11 g. For the same substance, the “Abdomen fat” value [2] was 12.99 ± 1.23 g, the “Body weight (g) (after experiment)” value [2] was 546.59 ± 18.64 g and the “Weight of abdomen fat/body weight” value ([2]; in % (unit assumed)) was 2.38 ± 0.13. The “Body weight (g) (after experiments)” value [3] was 546.59 ± 18.64 g, the “Fat pad weight around the testicles” value [3] was 9.11 ± 0.48 g and the “Fat pad weight around the testicles/body weight” value ([3]; in % (unit assumed)) was 1.67 ± 0.13. The “Body weight (g) (after experiments)” value [4] was 546.59 ± 18.64 g, the “Total weight of fat pads around the kidneys” value [4] was 9.29 ± 0.61 g and the “Total weight of fat pads around the kidneys/body weight” value [4] was 1.70 ± 0.13.
In the case of fucoxanthin, the “Body weight (g) (after experiment)” value [1, 5] is reported as 530.18 ± 20.32Δ g, the “Body weight (g) (before experiment)” value [1] is reported as 486.50 ± 22.10 g and the “Weight increased(g)” value [1, 6] is reported as 43.68 ± 19.13Δ g. The “Abdomen fat (g)” value [2] was 9.58 ± 1.99Δ g, the “Body weight (g) (after experiment)” value [2] was 530.18 ± 20.32 g and the “Weight of abdomen fat/body weight” value [2] was 1.81 ± 0.13Δ. The “Body weight (g) (after experiments)” value [3] was 530.18 ± 20.32 g, the “Fat pad weight around the testicles (g)” value [3] was 7.32 ± 0.83Δ g and the “Fat pad weight around the testicles/body weight” value [3] was 1.38 ± 0.11Δ. For the same substance, the “Body weight (g) (after experiments)” value [4] was 530.18 ± 20.32 g, the “Total weight of fat pads around the kidneys (g)” value [4] was 7.42 ± 0.60Δ g and the “Total weight of fat pads around the kidneys/body weight” value [4] was 1.42 ± 0.12Δ. For the same substance, the “effects compared with B+C group” value (test subjects; clinic trial, P<0.05) was “more significant than B+C group”, the “The area of subcutaneous fat, Decrease (%)” value (test subjects; [7]) was 6.10% and the “The area of visceral fat, Decrease (%)” value (test subjects; [7]) was 4.20%. For the same substance, the “Total abdomen fat area, decrease” value (test subjects; [7]) was 5.68%, the “Body weight Change: decrease by” value (test subjects; n = 4, oral daily dose A 2 mg, B 2 mg, C 22 mg, after vs before) was “by 1.5%” and the “The area of subcutaneous fat, Before clinic experiment” value (test subjects; x ± s, n = 4, CT, difference of total and visceral fat areas, baseline) was 15514 ± 1192 mm^2. For the same substance, the “The area of subcutaneous fat, After clinic experiment” value (test subjects; x ± s, n = 4, CT, difference of total and visceral fat areas, daily dose A 2 mg, B 2 mg, C 22 mg) was 14568 ± 1225* mm^2, the “Total abdomen fat area, Before clinic experiment” value (test subjects; x ± s, n = 4, CT, umbilical cross-section, baseline) was 36555 ± 1645 mm^2 and the “The area of visceral fat, Before clinic experiment” value (test subjects; x ± s, n = 4, CT, baseline) was 17380 ± 1185 mm^2. For the same substance, the “The area of visceral fat, After clinic experiment” value (test subjects; [8]) was 16650 ± 1484* mm^2, the “Total abdomen fat area, After clinic experiment” value (test subjects; [8]) was 34479 ± 1475 mm^2 and the “Body weight, Before clinic experiment” value (test subjects; x ± s, n = 4, baseline) was 68.4 ± 0.13 kg. For the same substance, the “Body weight, After clinic experiment” value (test subjects; x ± s, n = 4, oral daily dose A 2 mg, B 2 mg, C 22 mg) was 67.37 ± 0.11 kg.
